Where a name gives a salt, the structure may show the parent alone. Some results are limits rather than exact numbers.

In one data set the test system is rgRSV224 virus. In words: Antiviral activity: rgRSV224 (GFP) replication in HeLa cells. Type of data set: cell-based, respiratory syncytial virus (RSV). The note with it: human respiratory syncytial virus, HeLa, 72 h, read-out: RSV HELA pEC50, rgRSV224 virus (MOI=1), HeLa cells, GFP expression, three days post-virus exposure (converted). As for the experimental part:
Black 384-well clear-bottom microtiter plates (Corning, Amsterdam, The Netherlands) were filled via acoustic drop ejection using the echo liquid handler (Labcyte, Sunnyvale, Calif.), 200 nL of compound stock solutions (100% DMSO) were transferred to the assay plates, 9 serial 4-fold dilutions of compound were made, creating per quadrant the same compound concentration. The assay was initiated by adding 10 μL of culture medium to each well (RPMI medium without phenol red, 10% FBS-heat inactivated, 0.04% gentamycin (50 mg/mL). All addition steps are done by using a multidrop dispenser (Thermo Scientific, Erembodegem, Belgium). Next, rgRSV224 virus (MOI=1) diluted in culture medium was added to the plates, rgRSV224 virus is an engineered virus that includes an additional GFP gene (Hallak L K, Spillmann D. Collins P L, Peeples M E.
(§1) Glycosaminoglycan sulfation requirements for respiratory syncytial virus infection; Journal of virology (2000), 74(22), 10508-13) and was in-licensed from the NIH (Bethesda, Md., USA). Finally, 20 μL of a HeLa cell suspension (3,000 cells/well) were plated. Medium, virus- and mock-infected controls were included in each test. The wells contain 0.05% DMSO per volume. Cells were incubated at 37° C. in a 5% CO2 atmosphere. Three days post-virus exposure, viral replication was quantified by measuring GFP expression in the cells by an in house developed MSM laser microscope (Tibotec. Beerse, Belgium). The EC50 was defined as the 50% inhibitory concentration for GFP expression. In parallel, compounds were incubated for three days in a set of white 384-well microtiter plates (Corning) and the cytotoxicity of compounds in HeLa cells was determined by measuring the ATP content of the cells using the ATPlite kit (PerkinElmer, Zaventem, Belgium) according to the manufacturer's instructions. The CC50 was defined as the 50% concentration for cytotoxicity.

Data set [1] can be described thus: Cytotoxicity in HeLa cells (ATP content, ATPlite kit). The note with it: human, three days incubation, read-out: TOX HELA pCC50 (converted). Type of data set: cell-based. The method, then:
as §1
(In ATP-based viability assays light output follows the ATP content of the culture.)

For the molecule `OC1(c2ccccc2)CCN(c2ncccc2N2CCN(c3ccncc3)CC2)CC1` [Compound 73], the EC50 in the data set on rgRSV224 virus was 631 nM. In data set [1], the CC50 at 3 days is 63100 nM.
Consider `COCCCn1c(-c2ncccc2N2CCN(c3ccncc3)CC2)cc2ccccc21` (as salt: fumarate), for which the melting point is 168 °C.
In the case of `COc1ccc(C(O)c2ncccc2N2CCN(c3ccncc3)CC2)cc1` (stereo not drawn) [Compound 71], the EC50 in the data set with rgRSV224 virus was 39800 nM. For the same molecule, the CC50 at 3 days in data set [1] was > 100000 nM.
Molecule `c1cnc(-c2ccc3cc[nH]c3c2)c(N2CCN(c3ccncc3)CC2)c1` [Compound 44] showed a melting point of 195 °C. Also, in the data set with rgRSV224 virus, the EC50 is 32.4 nM. Besides, in data set [1], the CC50 at 3 days was 53700 nM.
The corresponding values for `Cn1ccc2c(-c3ncccc3N3CCN(c4ccncc4)CC3)cccc21` [Compound 43] are 170 °C, 30.2 nM and 45700 nM.
The corresponding values for `CS(=O)(=O)Nc1ccc(-c2ncccc2N2CCN(c3ccncc3)CC2)cc1` [Compound 42] are 248 °C, 501 nM and > 100000 nM.
In the same order, the values of `c1cnc(-c2ccc3c(c2)CCO3)c(N2CCN(c3ccncc3)CC2)c1` [Compound 30] are 200 °C, 603 nM and 1700 nM.
Molecule `CC(=O)c1cccc(-c2nccnc2N2CCN(c3ccccc3)CC2)c1` [Compound 1] yielded a melting point of 172.56 °C. The EC50 with rgRSV224 virus is 955 nM. Moreover, in data set [1], the CC50 at 3 days was 2290 nM.
Molecule `Clc1cc(N2CCN(c3cccnc3-c3ccccc3)CC2)ccn1` [Compound 32] showed a melting point of 122 °C. Further, the EC50 with rgRSV224 virus was 105 nM. For the same molecule, the CC50 at 3 days in data set [1] was 135 nM.
The corresponding values for `OCCCn1c(-c2ncccc2N2CCN(c3ccncc3)CC2)cc2ccccc21` [Compound 50] are 110 °C, 6.61 nM and > 100000 nM.
As for `c1cc(N2CCN(c3nccnc3-c3ccc4occc4c3)CC2)ccn1` [Compound 7], the EC50 with rgRSV224 virus was 871 nM. For the same molecule, the CC50 at 3 days in data set [1] is > 97700 nM.
`FC(F)(F)Oc1ccc(-c2ncccc2N2CCN(c3ccncc3)CC2)cc1` [Compound 25] gave a melting point of 176 °C. In the data set on rgRSV224 virus, the EC50 is 871 nM. Also, in data set [1], the CC50 at 3 days is 33100 nM.
The corresponding values for `Cn1ccc2ccc(-c3ncccc3N3CCN(c4ccncc4)CC3)cc21` [Compound 41] are 174.57 °C, 11.5 nM and 49000 nM.
`c1cnc(-c2cnc3ccccc3c2)c(N2CCN(c3ccncc3)CC2)c1` [Compound 33] had a melting point of 182 °C. Also, the EC50 in the data set with rgRSV224 virus was 219 nM. For the same molecule, the CC50 at 3 days in data set [1] is > 100000 nM.
Regarding `c1cnc(-c2cccc3[nH]ccc23)c(N2CCN(c3ccncc3)CC2)c1`, the melting point was found to be 262 °C.
As to `Cn1c(-c2ncccc2N2CCN(c3ccncc3)CC2)cc2ccccc21` [Compound 40], in the data set with rgRSV224 virus, the EC50 is 25.1 nM. In addition, the CC50 at 3 days in data set [1] was 53700 nM.
For the molecule `COc1cc(N2CCN(c3cccnc3-c3ccccc3)CC2)ccn1` [Compound 29], the EC50 in the data set on rgRSV224 virus was 123 nM. In data set [1], the CC50 at 3 days was 257 nM.
For the molecule `Cn1ccc2cc(C(F)(F)F)c(-c3ncccc3N3CCN(c4ccncc4)CC3)cc21` [Compound 49], the melting point stood at 120 °C. In addition, the EC50 with rgRSV224 virus is 67.6 nM. Also, the CC50 at 3 days in data set [1] is 75900 nM.
With `N#CCCn1ccc2cc(-c3ncccc3N3CCN(c4ccncc4)CC3)ccc21` [Compound 51], the EC50 with rgRSV224 virus is 74.1 nM. Besides, the CC50 at 3 days in data set [1] is 55000 nM.
`c1cnc(-c2ccncc2)c(N2CCN(c3ccncc3)CC2)c1` [Compound 20] had a melting point of 166 °C. Moreover, the EC50 in the data set with rgRSV224 virus is 871 nM. Besides, the CC50 at 3 days in data set [1] was > 100000 nM.
In the same order, the values of `c1ccc(-c2ncccc2N2CCN(c3ccncc3)CC2)cc1` [Compound 2] are 204.15 °C, 603 nM and 1120 nM.
In the same order, the values of `Cn1ccc2cc(-c3ncccc3N3CCN(c4ccncc4)CC3)ccc21` [Compound 24] are 197 °C, 72.4 nM and 46800 nM.
Take `CC(C)Oc1ccc(-c2ncccc2N2CCN(c3ccncc3)CC2)cn1` [Compound 19]: the EC50 with rgRSV224 virus is 525 nM. Besides, in data set [1], the CC50 at 3 days was 19100 nM.
As for `c1cnc(-c2ccc3occc3c2)c(N2CCN(c3ccncc3)CC2)c1` [Compound 27], the melting point was 192 °C. For the same molecule, the EC50 in the data set on rgRSV224 virus was 135 nM. In data set [1], the CC50 at 3 days was 74100 nM.
As to `c1ccc(Cc2nccnc2N2CCN(c3ccncc3)CC2)cc1` [Compound 53], the EC50 in the data set with rgRSV224 virus was 3390 nM. Also, the CC50 at 3 days in data set [1] was 75900 nM.
Take `Clc1ccc(-c2ncccc2N2CCN(c3ccncc3)CC2)cc1` [Compound 15]: in the data set with rgRSV224 virus, the EC50 was 309 nM. The CC50 at 3 days in data set [1] is 891 nM.
In the same order, the values of `COc1ccc(-c2ncccc2N2CCN(c3ccncc3)CC2)cc1OC` [Compound 16] are 977 nM and > 100000 nM.
In the same order, the values of `CN(C)c1ccc(-c2ncccc2N2CCN(c3ccncc3)CC2)cc1` [Compound 34] are 295 nM and 74100 nM.
Consider `COc1cc(-c2ncccc2N2CCN(c3ccncc3)CC2)ccn1` [Compound 18], for which the EC50 in the data set with rgRSV224 virus is 832 nM. The CC50 at 3 days in data set [1] is > 97700 nM.
In the case of `COc1ccc(C(C)(O)c2ncccc2N2CCN(c3ccncc3)CC2)cc1` (stereo not drawn) [Compound 72], in the data set with rgRSV224 virus, the EC50 was 525 nM. Moreover, the CC50 at 3 days in data set [1] is > 100000 nM.
Regarding `Clc1cccc(-c2ncccc2N2CCN(c3ccncc3)CC2)c1` [Compound 3], the EC50 with rgRSV224 virus is 550 nM. The CC50 at 3 days in data set [1] is > 100000 nM.
In the same order, the values of `Cn1cc(-c2ccc(-c3ncccc3N3CCN(c4ccncc4)CC3)cc2)cn1` [Compound 66] are 933 nM and 70800 nM.
In the same order, the values of `CC1CN(c2cccnc2-c2ccc3ccn(C)c3c2)CCN1c1ccncc1` (stereo not drawn) [Compound 52] are 13.5 nM and 44700 nM.
In the same order, the values of `COc1ccc(C(O)(c2ccc(OC)cc2)c2ncccc2N2CCN(c3ccncc3)CC2)cc1` [Compound 64] are 50.1 nM and > 93300 nM.
For `COc1ccc(-c2ncccc2N2CCN(c3ccncc3)CC2)cc1` [Compound 5], in the data set on rgRSV224 virus, the EC50 is 427 nM. Besides, the CC50 at 3 days in data set [1] is > 100000 nM.
The corresponding values for `N#CCCn1ccc2ccc(-c3ncccc3N3CCN(c4ccncc4)CC3)cc21` [Compound 48] are 166 nM and > 100000 nM.
Turning to `c1cnc(-c2ccc(C3CCCCC3)cc2)c(N2CCN(c3ccncc3)CC2)c1` [Compound 61], the EC50 with rgRSV224 virus is 832 nM. Moreover, the CC50 at 3 days in data set [1] is 3470 nM.
For `N#Cc1ccc(-c2ncccc2N2CCN(c3ccncc3)CC2)cc1` [Compound 28], the EC50 in the data set with rgRSV224 virus was 589 nM. Moreover, in data set [1], the CC50 at 3 days was > 100000 nM.
The corresponding values for `Clc1ccc(-c2ncccc2N2CCN(c3ccncc3)CC2)c(Cl)c1` [Compound 14] are 186 nM and 40700 nM.
Take `Cn1nccc1-c1ccc(-c2ncccc2N2CCN(c3ccncc3)CC2)cc1` [Compound 67]: the EC50 in the data set on rgRSV224 virus is 407 nM. The CC50 at 3 days in data set [1] was 97700 nM.

Broadly, the melting point is the temperature of the solid-liquid transition.

The values above are taken from patent publication US10150761B2, “Substituted pyridine-piperazinyl analogues as RSV antiviral compounds” (Janssen Sciences Ireland UC, priority 2013, dated 2018).
